# Assay results published in patent publication US20190029975A1, “TOCOPHEROL AND TOCOTRIENOL QUINONE DERIVATIVES FOR INCREASING THIOSULFATE LEVELS OR DECREASING HYDROGEN SULFIDE LEVELS” (BIOELECTRON TECHNOLOGY CORPORATION, priority 2016, published 2019).
# Experiments:
# [1] = test system: mouse striatal cells (Q7); test: Thiosulfate production in EPI-743 treated ATG-stressed Q7 cells; assay type: cell-based; settings: for effect on cysteine levels: Q7 cells, 10 μM ATG or 100 nM EPI-743; for Cysteine Calculated Concentration / Thiosulfate Peak Area: 100 nM 743
# Description: Conditionally immortalized wild-type mouse striatal cells (Q7, passage #45) were seeded at 300,000 cells per well in 6-well plates containing 3 mL/well of DMEM (High Glucose) containing 10% FBS, penicillin/streptomycin, and 400 μg/mL G418. After an overnight incubation at 33C, the cells were treated for 4-5 hours with either EPI-743 (100 nM final concentration) or DMSO vehicle (1% final concentration). Aurothioglucose (final concentration 10 μM) was added prior to an 18-hour treatment period. Cells were washed 1× with Hanks' buffered saline solution (HBSS), counted, and then resuspended in monobromobimane capping solution.
# Cysteine and thiosulfate levels are shown below. Aurothioglucose (ATG) is an inhibitor of thioredoxin reductase-1 and has been repeatedly used as a tool compound to increase oxidative stress. […] Cysteine levels were unaffected by ATG or EPI-743 treatment.
# [2] = Plasma thiosulfate in Leigh Syndrome patients treated with EPI-743 (EPI743-12-002 Leigh Trial); assay type: in vivo, human
# Description: As part of the Edison EPI743-12-002 Leigh Trial, 17 Leigh Syndrome patients were treated with EPI-743 (15 mg/kg up to 200 mg three times a day) for 12 months. An additional 14 Leigh Syndrome patients received placebo for the first six months, and were randomized to either 5 or 15 mg/kg up to 200 mg three times a day EPI-743 for the subsequent six months.
# Plasma thiosulfate concentrations were measured at various time points, over a 12 month period, for patients on drug and placebo. Plasma samples were collected from Leigh Syndrome patients, and the samples processed according to the procedure described in Example 2. […]
# (§1) The samples were analyzed by measuring the absolute concentration of H2S, thiosulfate, and glutathione persulfide using 6-point calibration curves. […]
# (§2) An API mass spectrometer (AB6500 Qtrap) coupled to a high performance liquid chromatograph (Eksigent MicroLC 200 Plus) was used to quantify H2S, thiosulfate, and glutathione persulfide and their internal standards from all biological fluids and calibrants. […]
# Bromobimane (BB) and Bromobimane internal standard (B-IS) were injected before each calibration curve. […] Statistical calculations and analytical run acceptance were determined based on criteria set forth in the FDA/EMA guidance where applicable. Fundamental parameters such as accuracy, precision, selectivity, sensitivity, reproducibility, and stability were monitored.
# [3] = test system: SQOR products (thiosulfate, glutathione persulfide); test: Correlation of plasma H2S with the SQOR products thiosulfate and glutathione persulfide in Leigh Syndrome patients; assay type: in vivo, human; settings: all subjects at all time points
# Description: A quantitative method for the analysis of H2S, thiosulfate, and glutathione persulfide in biological matrices via liquid chromatography coupled to atmospheric pressure ionization (API) tandem mass spectrometry (LC-MS/MS) is provided.
# Patient plasma samples were collected with informed consent from the patients described in Example 1. The sulfur containing compounds were derivatized with bromo bimane to stabilize the samples for measurement. Samples were stored at −80° C. and shipped for analysis to Edison under dry ice.
# as §1, §2
# Bromobimane (BB) and Bromobimane internal standard (B-IS) were injected before each calibration curve. […] Statistical calculations and analytical run acceptance were determined based on criteria set forth in the FDA/EMA guidance where applicable. Fundamental parameters such as accuracy, precision, selectivity, sensitivity, reproducibility, and stability were monitored. […]
SMILES,effect on cysteine levels [1],"increase in mean plasma thiosulfate ([2]; Leigh Syndrome patients, across all time points over 12 months, versus baseline, placebo virtually no change)","mean plasma thiosulfate ([2]; subjects treated with EPI-743, across all time points, baseline 0.21 μM) [µM]",H2S/glutathione persulfide ratio versus untreated patients [3],H2S/thiosulfate ratio versus untreated patients [3],"Cysteine Calculated Concentration ([1]; 10 μM ATG, 1% DMSO control 0.272) [µM]","Thiosulfate Peak Area ([1]; 10 μM ATG, 1% DMSO control 3466)","increase in thiosulfate, EPI-743 treated versus untreated cells ([1]; ATG-stressed cells (10 μM ATG), 100 nM EPI-743)","Cysteine Calculated Concentration ([1]; No Stress, 1% DMSO control 0.251) [µM]","Thiosulfate Peak Area ([1]; No Stress, 1% DMSO control 2881)"
"OC[C@H]1O[C@H]([S-])[C@H](O)[C@@H](O)[C@@H]1O.[Au+] [ATG, Aurothioglucose, reference compound]",unaffected,–,–,–,–,–,–,–,–,–
CC(C)=CCC/C(C)=C/CC/C(C)=C/CC[C@@](C)(O)CCC1=C(C)C(=O)C(C)=C(C)C1=O [EPI-743],unaffected,greater than 100%,0.54,lower,lower,0.281,37903,approximately 10 fold,0.264,3656
